# Experimental data: US12304890B2, “R-type pyridyloxycarboxylic acid, salt and ester derivative thereof, and preparation method therefor, and herbicidal composition and application thereof” (Qingdao Kingagroot Chemical Compound Co., Ltd., priority 2018, dated 2025)
# What was measured:
# Assay type in all cases: in vivo
# Echinochloa crusgalli = test: Post-emergence test experiment, Echinochloa crusgalli; details: for Echinochloa crusgalli, activity level (growth inhibition rate): 200 g a.i./ha, 3 weeks, weed resistant to ALS inhibitor and ACCe herbicides; for Activity level (growth inhibition rate), Echinochloa crusgalli: 1000 g a.i./ha, 3 weeks in greenhouse, fresh weight inhibition
# Method in brief: (§1)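 Read-out is fresh weight inhibition rate, taken 3 weeks after spraying. Treatment was applied to plants at the 2-3 leaf stage, grown from seed under 0.5-2 cm soil in greenhouse pots. Spray solution contained acetone, tween-80 and methyl oleate emulsible concentrate at 1.5 liters per hectare.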
# rice = test: Post-emergence test experiment, rice (crop selectivity); details: 200 g a.i./ha, 3 weeks
# Description: (§2) The above described growth inhibition rate is fresh weight inhibition rate.
# (§3) Post-emergence test experiment: Monocotyledonous and dicotyledonous weed seeds and main crop seeds (i. e. wheat, corn, rice, soybean, cotton, oilseed, millet and sorghum.) were put into a plastic pot loaded with soil. Then covered with 0.5-2 cm soil, the seeds were allowed to grow in good greenhouse environment. The test plants were treated at 2-3 leaf stage 2 weeks after sowing. The test compounds of the invention were dissolved with acetone respectively, then added with tween-80, and using 1.5 liters per hectare of an emulsible concentrate of methyl oleate as a synergist, and diluted by certain amount of water to certain concentration. The solution was sprayed to the plants with a sprayer. Then the plants were cultured for 3 weeks in the greenhouse, and the experiment result of weed controlling effect was listed in tables 4-5.
# Digitaria sanguinalis = test: Post-emergence test experiment, Digitaria sanguinalis; details: for Digitaria sanguinalis, activity level (growth inhibition rate): 200 g a.i./ha, 3 weeks, weed resistant to cyhalofop-butyl; for Activity level (growth inhibition rate), Digitaria sanguinalis: 1000 g a.i./ha, 3 weeks in greenhouse, fresh weight inhibition
# Method in brief: as §1
# [1] = system: Monocotyledonous and dicotyledonous weed seeds and main crop seeds; test: Post-emergence test experiment, other weeds and crops (Table 4, 1000 g a.i./ha); details: 3 weeks in greenhouse, fresh weight inhibition
# Method in brief: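 Weed and crop seeds (wheat, corn, rice, soybean, cotton, oilseed, millet, sorghum) sown in soil pots in a greenhouse and sprayed at 2-3 leaf stage, 2 weeks after sowing. Compound in acetone/tween-80 with methyl oleate concentrate (1.5 L/ha) as synergist. Effect recorded as fresh-weight growth inhibition rate.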
# [2] = system: Semen Euphorbiae Lathyridis; test: Post-emergence test experiment, Semen Euphorbiae Lathyridis; details: 200 g a.i./ha, 3 weeks, weed resistant to cyhalofop-butyl
# Description: as §2, §3
Structure (SMILES),"Echinochloa crusgalli, activity level (growth inhibition rate) (Echinochloa crusgalli)","Activity level (growth inhibition rate), Echinochloa crusgalli (Echinochloa crusgalli)","rice, activity level (growth inhibition rate) (rice)","Digitaria sanguinalis, activity level (growth inhibition rate) (Digitaria sanguinalis)","Activity level (growth inhibition rate), Digitaria sanguinalis (Digitaria sanguinalis)","Activity level (growth inhibition rate), Abutilon theophrasti Medic. [1]","Activity level (growth inhibition rate), Galium aparine [1]","Activity level (growth inhibition rate), Monochoria Vaginalis [1]","Semen Euphorbiae Lathyridis, activity level (growth inhibition rate) [2]"
CCCCCCCCCCOC(=O)[C@@H](C)Oc1nc(F)c(Cl)c(N)c1Cl [Compound 2-195],4 (Level 4: the growth inhibition rate is equal to or greater than 60% and less than 85%),5 (Level 5: the growth inhibition rate is greater than 85%),0 (Level 0: the growth inhibition rate is less than 5%),5 (Level 5: the growth inhibition rate is greater than 85%),5 (Level 5: the growth inhibition rate is greater than 85%),5 (Level 5: the growth inhibition rate is greater than 85%),5 (Level 5: the growth inhibition rate is greater than 85%),5 (Level 5: the growth inhibition rate is greater than 85%),5 (Level 5: the growth inhibition rate is greater than 85%)
C[C@@H](Oc1nc(F)c(Cl)c(N)c1Cl)C(=O)OCCCC(F)(F)F [Compound 2-280],5 (Level 5: the growth inhibition rate is greater than 85%),5 (Level 5: the growth inhibition rate is greater than 85%),0 (Level 0: the growth inhibition rate is less than 5%),5 (Level 5: the growth inhibition rate is greater than 85%),5 (Level 5: the growth inhibition rate is greater than 85%),5 (Level 5: the growth inhibition rate is greater than 85%),5 (Level 5: the growth inhibition rate is greater than 85%),5 (Level 5: the growth inhibition rate is greater than 85%),5 (Level 5: the growth inhibition rate is greater than 85%)
CCCCCSC(=O)[C@@H](C)Oc1nc(F)c(Cl)c(N)c1Cl [Compound 2-86],5 (Level 5: the growth inhibition rate is greater than 85%),5 (Level 5: the growth inhibition rate is greater than 85%),0 (Level 0: the growth inhibition rate is less than 5%),5 (Level 5: the growth inhibition rate is greater than 85%),5 (Level 5: the growth inhibition rate is greater than 85%),5 (Level 5: the growth inhibition rate is greater than 85%),5 (Level 5: the growth inhibition rate is greater than 85%),5 (Level 5: the growth inhibition rate is greater than 85%),5 (Level 5: the growth inhibition rate is greater than 85%)
CCCCCCCCCCCCOC(=O)[C@@H](C)Oc1nc(F)c(Cl)c(N)c1Cl [Compound 2-235],5 (Level 5: the growth inhibition rate is greater than 85%),5 (Level 5: the growth inhibition rate is greater than 85%),0 (Level 0: the growth inhibition rate is less than 5%),5 (Level 5: the growth inhibition rate is greater than 85%),5 (Level 5: the growth inhibition rate is greater than 85%),5 (Level 5: the growth inhibition rate is greater than 85%),5 (Level 5: the growth inhibition rate is greater than 85%),5 (Level 5: the growth inhibition rate is greater than 85%),5 (Level 5: the growth inhibition rate is greater than 85%)
CCCCCCCCCCCOC(=O)[C@@H](C)Oc1nc(F)c(Cl)c(N)c1Cl [Compound 2-215],4 (Level 4: the growth inhibition rate is equal to or greater than 60% and less than 85%),5 (Level 5: the growth inhibition rate is greater than 85%),0 (Level 0: the growth inhibition rate is less than 5%),5 (Level 5: the growth inhibition rate is greater than 85%),5 (Level 5: the growth inhibition rate is greater than 85%),5 (Level 5: the growth inhibition rate is greater than 85%),5 (Level 5: the growth inhibition rate is greater than 85%),5 (Level 5: the growth inhibition rate is greater than 85%),5 (Level 5: the growth inhibition rate is greater than 85%)
CCCC(C)COC(=O)[C@@H](C)Oc1nc(F)c(Cl)c(N)c1Cl (stereo partly drawn) [Compound 2-103],5 (Level 5: the growth inhibition rate is greater than 85%),5 (Level 5: the growth inhibition rate is greater than 85%),0 (Level 0: the growth inhibition rate is less than 5%),5 (Level 5: the growth inhibition rate is greater than 85%),5 (Level 5: the growth inhibition rate is greater than 85%),5 (Level 5: the growth inhibition rate is greater than 85%),5 (Level 5: the growth inhibition rate is greater than 85%),5 (Level 5: the growth inhibition rate is greater than 85%),5 (Level 5: the growth inhibition rate is greater than 85%)
CC(C)=NOCCOC(=O)C(C)Oc1nc(F)c(Cl)c(N)c1Cl (stereo not drawn) [Compound 2-287],5 (Level 5: the growth inhibition rate is greater than 85%),5 (Level 5: the growth inhibition rate is greater than 85%),0 (Level 0: the growth inhibition rate is less than 5%),5 (Level 5: the growth inhibition rate is greater than 85%),5 (Level 5: the growth inhibition rate is greater than 85%),5 (Level 5: the growth inhibition rate is greater than 85%),5 (Level 5: the growth inhibition rate is greater than 85%),5 (Level 5: the growth inhibition rate is greater than 85%),5 (Level 5: the growth inhibition rate is greater than 85%)
CCCCC(C)OC(=O)[C@@H](C)Oc1nc(F)c(Cl)c(N)c1Cl (stereo partly drawn) [Compound 2-113],5 (Level 5: the growth inhibition rate is greater than 85%),5 (Level 5: the growth inhibition rate is greater than 85%),0 (Level 0: the growth inhibition rate is less than 5%),5 (Level 5: the growth inhibition rate is greater than 85%),5 (Level 5: the growth inhibition rate is greater than 85%),5 (Level 5: the growth inhibition rate is greater than 85%),5 (Level 5: the growth inhibition rate is greater than 85%),5 (Level 5: the growth inhibition rate is greater than 85%),5 (Level 5: the growth inhibition rate is greater than 85%)
CCCCCCCOC(=O)[C@@H](C)Oc1nc(F)c(Cl)c(N)c1Cl [Compound 2-121],5 (Level 5: the growth inhibition rate is greater than 85%),5 (Level 5: the growth inhibition rate is greater than 85%),0 (Level 0: the growth inhibition rate is less than 5%),5 (Level 5: the growth inhibition rate is greater than 85%),5 (Level 5: the growth inhibition rate is greater than 85%),5 (Level 5: the growth inhibition rate is greater than 85%),5 (Level 5: the growth inhibition rate is greater than 85%),5 (Level 5: the growth inhibition rate is greater than 85%),5 (Level 5: the growth inhibition rate is greater than 85%)
